From publication PMC9413440, “An Iterative Approach Guides Discovery of the FabI Inhibitor Fabimycin, a Late-Stage Antibiotic Candidate with In Vivo Efficacy against Drug-Resistant Gram-Negative Infections” (ACS Central Science, 2022)
Values after ≈ are worked out from the molar mass of the structure shown. Where two headings read alike, the source gives them in different places.

What was measured:
[1] = tested on: Streptococcus parasanguinis KLE 2375; assay: MIC, commensal bacteria; format: cell-based; conditions: KLE2375
Procedure: (§1) II. Materials and Methods for Biological Experiments
(§2) S. aureus ATCC 29213 and E. coli MG1655 were obtained from the American Type Culture Collection (ATCC). E. coli BW25113 and E. coli JW5503 were obtained from the Keio Collection. AR-bank strains were obtained from the Centers for Disease Control and Prevention and FDA Antibiotic Resistance Isolate Bank.
(§3) Antimicrobial susceptibility tests
(§4) Susceptibility testing was performed in biological triplicate, unless noted otherwise, using the micro-dilution broth method as outlined by the Clinical and Laboratory Standards Institute. Bacteria were cultured with cation-adjusted Mueller Hinton broth (Sigma Aldrich, catalogue number: 90922). […]
(§5) NH3: m/z 391.2 → 171.0. Fabimycin: m/z 405.3 → 145.3. Power analysis was not used to determine the number of replicates. Error bars represent the standard error of the mean of three biological replicates. All compounds evaluated in biological assays were ≥95% pure.

[2] = tested on: Bifidobacterium longum ATCC BAA999; assay: MIC, commensal bacteria; format: cell-based; conditions: ATCCBAA999
Procedure: as §1, §2, §3, §4, §5

[3] = tested on: Lactobacillus reuteri ATCC 23272; assay: MIC, commensal bacteria; format: cell-based; conditions: Limosilactobacillus reuteri, ATCC23272
Procedure: as §1, §2, §3, §4, §5

[4] = tested on: Bacteroides vulgatus KLE 2303; assay: MIC, commensal bacteria; format: cell-based; conditions: Phocaeicola vulgatus, KLE2303
Procedure: as §1, §2, §3, §4, §5

[5] = tested on: Faecalibacterium prausnitzii ATCC 27768; assay: MIC, commensal bacteria; format: cell-based; conditions: ATCC27768
Procedure: as §1, §2, §3, §4, §5

[6] = tested on: Bacteroides cellulosilyticus KLE 2342; assay: MIC, commensal bacteria; format: cell-based; conditions: KLE2342
Procedure: as §1, §2, §3, §4, §5

[7] = tested on: Enterococcus faecalis KLE 2341; assay: MIC, commensal bacteria; format: cell-based; conditions: KLE2341
Procedure: as §1, §2, §3, §4, §5

[8] = tested on: Blautia producta ATCC 27340; assay: MIC, commensal bacteria; format: cell-based; conditions: ATCC27340
Procedure: as §1, §2, §3, §4, §5

[9] = tested on: Vancomycin-resistant Enterococcus (VRE); assay: MIC, vancomycin-resistant Enterococcus strains; format: cell-based
Procedure: as §1, §2, §3, §4, §5

A. baumannii AR-0088 = assay: Dose-ranging and efficacy, neutropenic thigh infection; format: in vivo, mouse; conditions: neutropenic BALB/c mice, burden at 26 h
Text: Neutropenic thigh infection model
Acclimated CD-1 mice (see above) were rendered neutropenic prior to the experiment via cyclophosphamide treatment. […]
Dose-ranging and efficacy of fabimycin
The protocol to assess fabimycin’s efficacy in A. baumannii-infected mice (strain: AR-0088) was approved by the IACUC at Pharmacology Discovery Services, Taiwan, Ltd. (protocol number: IM003-01282019). In this study, neutropenic female BALB/c mice 7-8 weeks in age from BioLASCO Taiwan (AAALAC-certified Charles River Licensee) weighing 18 ± 2 grams were used. The mice were rendered neutropenic and inoculated in the same method as used for the pharmacokinetic study. Fabimycin was formulated in 17% Cremophor EL/3% SBE-β-CD and IV administered. Colistin was formulated in 0.9% NaCl and subcutaneously (SC) administered.
5 or 30 minutes after dosing with respect to IV and SC route to detect acute toxicity, which was recorded and reported, […]
Animals were euthanized using compressed CO2 gas in a CO2 gas chamber. […] Bacterial burden in the tissue homogenates was determined by performing 10-fold serial dilutions and plating 0.1 mL of each to nutrient agar plates. Colonies were counted after 18 - 24 h incubation. The colony-forming unit value per tissue (CFU/thigh) was calculated. […]
IM011-12282020). […] Tissues were collected and pathogen burden evaluated by dilution plating technique on nutrient agar plates.

Cc1c(CN(C)C(=O)/C=C/c2cnc3c(c2)CC[C@H](N)C(=O)N3)oc2ccccc12 [fabimycin]
MIC [1]: 128 mg/L (≈ 316 µM)
MIC [2]: > 128 mg/L
MIC [3]: 64 mg/L (≈ 158 µM)
MIC [4]: > 128 mg/L
MIC [5]: > 128 mg/L
MIC [6]: > 128 mg/L
MIC [7]: > 128 mg/L
MIC [8]: > 128 mg/L
MIC ([9]; ATCC 1593 / VRE): 128 mg/L (≈ 316 µM)
MIC ([9]; ATCC 1768 / VRE): > 128 mg/L
MIC ([9]; ATCC 2059 / VRE, VRE ATCC 2059, read-out: MIC): 64 mg/L (≈ 158 µM)
MIC ([9]; ATCC 2431 / VRE): > 128 mg/L
MIC ([9]; ATCC 2574 / VRE): > 128 mg/L
MIC ([9]; ATCC 3053 / VRE, VRE ATCC 3053, read-out: MIC): 64 mg/L (≈ 158 µM)
MIC ([9]; ATCC 3183 / VRE, VRE ATCC 3183, read-out: MIC): 64 mg/L (≈ 158 µM)
MIC ([9]; ATCC 3190 / VRE): > 128 mg/L
MIC ([9]; ATCC 3191 / VRE): 128 mg/L (≈ 316 µM)
MIC ([9]; ATCC 29212 / VRE): 128 mg/L (≈ 316 µM)
reduction of bacterial burden (A. baumannii AR-0088; 75 mg/kg IV four times a day, NDM-1 containing strain): ~2 log(CFU/thigh)
dose at which significant dose-dependent responses begin (A. baumannii AR-0088; IV four times a day, doses 1.25–75 mg/kg): 30 mg/kg
